# Laboratory results published in patent US20240317721A1, “PYRAZOLYL DERIVATIVES AS INHIBITORS OF THE KRAS MUTANT PROTEIN” (NOVARTIS AG, priority 2021, published 2024).
# Target: KRasG12C (M1-K169, biotinylated on the N-terminus) (Homo sapiens (Human), UniProt P01116, G12C)
# Test: Covalent competition assay: scintillation proximity assay (SPA) quantifying covalent modification of KRASG12C
# Format: binding
# Details: competition with radiolabeled covalent probe (Compound B/Compound A), 2 hours incubation, 10 nM KRasG12C
# Method in brief: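 Scintillation proximity readout after streptavidin bead capture (30 min) of biotinylated KRasG12C(M1-K169):GDP, 10 nM final, which was covalently labelled over 2 h by 25 nM radio-probe plus 475 nM cold probe unless blocked by compound.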
row,Structure (SMILES),IC50 [µM]
1,"C=CC(=O)N1CC2(CC(n3nc(N4CC[C@@H](CN5CCN(C6COC6)CC5)CC4(C)C)c(-c4c(Cl)c(Cl)cc5[nH]ncc45)c3C)C2)C1 (single isomer, unassigned) [Example 243a]",3.8
2,"C=CC(=O)N1CC2(CC(n3nc(N4CC[C@@H](CN5CCn6cnnc6C5)CC4(C)C)c(-c4c(Cl)c(Cl)cc5[nH]ncc45)c3C)C2)C1 (single isomer, unassigned) [Example 250a]",0.405
3,"C=CC(=O)N1CC2(CC(n3nc(N4CCn5nccc5C4)c(-c4c(Cl)c(C)cc5[nH]ncc45)c3C)C2)C1 (single isomer, unassigned) [Example 10a, 1-(6-(4-(5-Chloro-6-methyl-1H-indazol-4-yl)-3-(6,7-dihydropyrazolo[1,5-a]pyrazin-5(4H)-yl)-5-methyl-1H-pyrazol-1-yl)-2-azaspiro[3.3]heptan-2-yl)prop-2-en-1-one]",50
4,"C=CC(=O)N1CC2(CC(n3nc(N4CC[C@@H](CN5CCO[C@@H](C(N)=O)C5)CC4(C)C)c(-c4c(Cl)c(Cl)cc5[nH]ncc45)c3C)C2)C1 (single isomer, unassigned) [Example 271a]",> 5
5,"C=CC(=O)N1CC2(CC(n3nc(N4CC[C@@H](CN5CC6(CCCN6C(C)=O)C5)CC4(C)C)c(-c4c(Cl)c(Cl)cc5[nH]ncc45)c3C)C2)C1 (single isomer, unassigned) [Example 285b]",0.007
6,"C=CC(=O)N1CC2(CC(n3nc(N4CCC(CN5C[C@@H]6C[C@H]5CO6)CC4(C)C)c(-c4c(Cl)c(Cl)cc5[nH]ncc45)c3C)C2)C1 (single isomer, unassigned) [Example 217a]",0.928
7,"C=CC(=O)N1CC2(CC(n3nc(N4CC[C@@H](CN5CCN(C6COC6)C[C@@H]5COC)CC4(C)C)c(-c4c(Cl)c(Cl)cc5[nH]ncc45)c3C)C2)C1 (single isomer, unassigned) [Example 320a]",3.3
8,"C=CC(=O)N1CC2(CC(n3nc(N4CCN(C5COC5)C[C@]4(C)CCOC)c(-c4c(Cl)c(C)cc5[nH]ncc45)c3C)C2)C1 (single isomer, unassigned) [Example 86a]",2.3
9,"C=CC(=O)N1CC2(CC(n3nc(N4CC[C@H](CN5CCOCC5)CC4(C)C)c(-c4c(Cl)c(Cl)cc5[nH]ncc45)c3C)C2)C1 (single isomer, unassigned) [Example 214b]",0.679
10,"C=CC(=O)N1CC2(CC(n3nc(N4CC[C@@H](CN(CCO)CCOC)CC4(C)C)c(-c4c(Cl)c(Cl)cc5[nH]ncc45)c3C)C2)C1 (single isomer, unassigned) [Example 253a]",1.5
11,"C=CC(=O)N1CC2(CC(n3nc(N4CCN(C5CCOCC5)C[C@]4(C)COC)c(-c4c(Cl)c(C)cc5[nH]nc(N)c45)c3C)C2)C1 (single isomer, unassigned) [Example 90b]",0.558
12,"C=CC(=O)N1CC2(CC(n3nc(N4CCN(C(C)=O)CC4)c(-c4c(Cl)ccc5[nH]ncc45)c3C)C2)C1C (single isomer, unassigned) [Example 198a, 1-(6-(3-(4-acetylpiperazin-1-yl)-4-(5-chloro-1H-indazol-4-yl)-5-methyl-1H-pyrazol-1-yl)-1-methyl-2-azaspiro[3.3]heptan-2-yl)prop-2-en-1-one]",> 50
13,"C=CC(=O)N1CC2(CC(n3nc(N4CC[C@@H](CN5CC6CCC(C5)O6)CC4(C)C)c(-c4c(Cl)c(Cl)cc5[nH]ncc45)c3C)C2)C1 (single isomer, unassigned) [Example 314a]",2.1
14,"C=CC(=O)N1CC2(CC(n3nc(N4CCN(CCOC)CC4(C)C)c(-c4c(Cl)c(C)cc5[nH]ncc45)c3C)C2)C1 (single isomer, unassigned) [Example 170b, 1-(6-(4-(5-chloro-6-methyl-1H-indazol-4-yl)-3-(4-(2-methoxyethyl)-2,2-dimethylpiperazin-1-yl)-5-methyl-1H-pyrazol-1-yl)-2-azaspiro[3.3]heptan-2-yl)prop-2-en-1-one]",0.06
15,"C=CC(=O)N1CC2(CC(n3nc(N4CC[C@@H](CN5C[C@@H]6CS(=O)(=O)C[C@@H]6C5)CC4(C)C)c(-c4c(Cl)c(Cl)cc5[nH]ncc45)c3C)C2)C1 (single isomer, unassigned) [Example 294b]",0.01
16,"C=CC(=O)N1CC2(CC(n3nc(N4[C@H](C)CN(C(C)=O)C[C@@H]4C)c(-c4c(Cl)c(C)cc5[nH]ncc45)c3C)C2)C1 (single isomer, unassigned) [Example 13b]",2.1

row,Structure (SMILES),IC50 [µM]
1,"C=CC(=O)N1CC2(CC(n3nc(N4CC[C@@H](CN5CCOC6(COC6)C5)CC4(C)C)c(-c4c(Cl)c(C)cc5[nH]ncc45)c3C)C2)C1 (single isomer, unassigned) [Example 299b]",0.023
2,"C=CC(=O)N1CC2(CC(n3nc(N4CCN(C5(C)COC5)CC45CCC5)c(-c4c(Cl)c(C)cc5[nH]ncc45)c3C)C2)C1 (single isomer, unassigned) [Example 191a, 1-(6-(4-(5-Chloro-6-methyl-1H-indazol-4-yl)-5-methyl-3-(8-(3-methyloxetan-3-yl)-5,8-diazaspiro[3.5]nonan-5-yl)-1H-pyrazol-1-yl)-2-azaspiro[3.3]heptan-2-yl)prop-2-en-1-one]",> 5
3,"C=CC(=O)N1CC2(CC(n3nc(N4C[C@H](C)N(C5COC5)CC4(C)C)c(-c4c(Cl)c(Cl)cc5[nH]ncc45)c3C)C2)C1 (single isomer, unassigned) [Example 104a]",4.44
4,"C=CC(=O)N1CC2(CC(n3nc(N4CCN(C(C)=O)CC4(C)C)c(-c4c(Cl)c(C)cc5[nH]ncc45)c3C)C2)C1 (single isomer, unassigned) [Example 18b, 1-(6-(3-(4-acetyl-2,2-dimethylpiperazin-1-yl)-4-(5-chloro-6-methyl-1H-indazol-4-yl)-5-methyl-1H-pyrazol-1-yl)-2-azaspiro[3.3]heptan-2-yl)prop-2-en-1-one]",0.031
5,"CC[C@@]1(C)CN(C[C@@H]2COCCO2)CCN1c1nn(C2CC3(C2)CN(C(=O)/C=C/COC)C3)c(C)c1-c1c(Cl)c(C)cc2[nH]ncc12 (single isomer, unassigned) [Example 120a]",> 5
6,"C=CC(=O)N1CC2(CC(n3nc(N4CCC5C(CC(=O)N5C)C4)c(-c4c(Cl)c(C)cc5[nH]ncc45)c3C)C2)C1 (single isomer, unassigned) [Example 38a, 5-(1-(2-acryloyl-2-azaspiro[3.3]heptan-6-yl)-4-(5-chloro-6-methyl-1H-indazol-4-yl)-5-methyl-1H-pyrazol-3-yl)-1-methyloctahydro-2H-pyrrolo[3,2-c]pyridin-2-one]",> 5
7,"C=CC(=O)N1CC2(CC(n3nc(N4CCC(C(=O)N5CCN(C)CC5)CC4(C)C)c(-c4c(Cl)c(Cl)cc5[nH]ncc45)c3C)C2)C1 (single isomer, unassigned) [Example 211a, 1-(6-(4-(5,6-dichloro-1H-indazol-4-yl)-3-(2,2-dimethyl-4-(4-methylpiperazine-1-carbonyl)piperidin-1-yl)-5-methyl-1H-pyrazol-1-yl)-2-azaspiro[3.3]heptan-2-yl)prop-2-en-1-one]",1.6
8,"C=CC(=O)N1CC2(CC(n3nc(N4CCN(C5COC5)C[C@]4(C)CCOC)c(-c4c(Cl)c(C)cc5[nH]ncc45)c3C)C2)C1 (single isomer, unassigned) [Example 86b]",0.008
9,"C=CC(=O)N1CC2(CC(n3nc(N4CC[C@@H](N(C)C(C)=O)CC4(C)C)c(-c4c(Cl)c(C)cc5[nH]ncc45)c3C)C2)C1 (single isomer, unassigned) [Example 69a]",4.4
10,"C=CC(=O)N1CC2(CC(n3nc(N4CCN(C5CCOC5)CC45CCC5)c(-c4c(Cl)c(C)cc5[nH]ncc45)c3C)C2)C1 (single isomer, unassigned) [Example 132b, 1-(6-(4-(5-chloro-6-methyl-1H-indazol-4-yl)-5-methyl-3-(8-(tetrahydrofuran-3-yl)-5,8-diazaspiro[3.5]nonan-5-yl)-1H-pyrazol-1-yl)-2-azaspiro[3.3]heptan-2-yl)prop-2-en-1-one]",4.5
11,"C=CC(=O)N1CC2(CC(n3nc(N4CCc5c(cnn5C)C4)c(-c4c(Cl)c(C)cc5[nH]ncc45)c3C)C2)C1 (single isomer, unassigned) [Example 11b, 1-(6-(4-(5-chloro-6-methyl-1H-indazol-4-yl)-5-methyl-3-(1-methyl-1,4,6,7-tetrahydro-5H-pyrazolo[4,3-c]pyridin-5-yl)-1H-pyrazol-1-yl)-2-azaspiro[3.3]heptan-2-yl)prop-2-en-1-one]",0.12
12,"C=CC(=O)N1CC2(CC(n3nc(N4CCC(N(C)C5COC5)CC45CCC5)c(-c4c(Cl)c(C)cc5[nH]nc(N)c45)c3C)C2)C1 (single isomer, unassigned) [Example 116b, 1-(6-(4-(3-amino-5-chloro-6-methyl-1H-indazol-4-yl)-5-methyl-3-(8-(methyl(oxetan-3-yl)amino)-5-azaspiro[3.5]nonan-5-yl)-1H-pyrazol-1-yl)-2-azaspiro[3.3]heptan-2-yl)prop-2-en-1-one]",1.9
13,"C=CC(=O)N1CC2(CC(n3nc(N4CC[C@@H](CN5CCN(C6COC6)CC5)CC4(C)C)c(-c4c(Cl)ccc5[nH]ncc45)c3C)C2)C1 (single isomer, unassigned) [Example 255b]",0.084
14,"C=CC(=O)N1CC2(CC(n3nc(N4CC[C@@H](CN5CC(O)C(OC)C5)CC4(C)C)c(-c4c(Cl)c(Cl)cc5[nH]ncc45)c3C)C2)C1 (single isomer, unassigned) [Example 273b, 1-(6-(4-(5,6-dichloro-1H-indazol-4-yl)-3-((R)-4-(((3S*,4S*)-3-hydroxy-4-methoxypyrrolidin-1-yl)methyl)-2,2-dimethylpiperidin-1-yl)-5-methyl-1H-pyrazol-1-yl)-2-azaspiro[3.3]heptan-2-yl)prop-2-en-1-one]",0.01
15,"C=CC(=O)N1CC2(CC(n3nc(N4CCN(C(=O)OCCOC)CC45CCC5)c(-c4c(Cl)c(C)cc5[nH]ncc45)c3C)C2)C1 (single isomer, unassigned) [Example 122b, 2-methoxyethyl 5-(1-(2-acryloyl-2-azaspiro[3.3]heptan-6-yl)-4-(5-chloro-6-methyl-1H-indazol-4-yl)-5-methyl-1H-pyrazol-3-yl)-5,8-diazaspiro[3.5]nonane-8-carboxylate]",0.016
